The source of these data is publication PMC5890784, “Total chemical synthesis of glycocin F and analogues: S-glycosylation confers improved antimicrobial activity” (Chemical Science, 2018).

Bridges are numbered along the chain shown (N, C = ends). The star is where a group is joined. βGlcNAc = CC(=O)N[C@@H]1[C@@H](O)[C@H](O)[C@@H](CO)O[C@H]1*

As usually defined, the IC50 is the concentration that inhibits the measured activity by half.

The test system of this test is Lactobacillus plantarum ATCC 8014. Format: cell-based. The conditions noted are these: for IC50: liquid culture in MRS broth, 96-well plate, triplicate, start OD 0.05, 30 °C, 12-15 h, absorbance 600 nm, error = maximum variance across triplicates. The procedure: To evaluate the antibacterial activity of synthetic glycocin F (1b), [^27D-His]-GccF (1a) and glyco-mutants 10 and 11, the IC50 values against Lactobacillus plantarum ATCC 8014 were measured using a liquid culture assay. Synthetic GccF (1b) was used as the positive control (Table 1).
The glycopeptides were assayed for activity against Lactobacillus plantarum strain 8014, using a 96-well plate reader. Serial dilutions of the compound to be tested were prepared in MRS broth (Merck) and was added, in triplicate, to a 96-well plate containing an equal volume of L. plantarum 8014 at optical density 0.05. Additional positive controls (cells with no treatment) and negative controls (MRS media with no cells) were included, also in triplicate. Cells were grown in a Multiskan GO plate reader (Thermo Scientific) for 12-15 h, at 30 °C, and absorbance measured at 600 nm every 15 min. The growth of cells in each peptide concentration was modelled against the internal positive control, and the percentage inhibition derived at each time point as the difference between the optical density of the positive control and the optical density of cells within a given peptide concentration. Taking the maximum point from plots of percentage inhibition versus time for each peptide concentration allowed a polynom ial fit to be applied, and the concentration required to reach 50% inhibition derived.
Statistical error was taken as the maximum variance across the triplicates of each concentration in a […]
Figure 44. Th e results from testin g the bacterially-isola ted GccF, synthetic GccF (1b) and analo gues 1a, 10, and 11, plott ed as perc entage in hibit ion of Lact oba cillus plantarum ATCC 8014 gro wth vs concentra tion of the […]
(1 picture or pasted object on this page, not shown here)

Where [1] appears, read: from IC50 values, relative to IC50 1.13 nM.

With “H-KPAWCWYTLAMCGAGYDC(βGlcNAc)GTCDYMYSHCFGIKHHSSGSSSYHC(βGlcNAc)-OH (disulfide 5-28, 12-21) [Compound 11]”, under setting [1], the “increase in activity relative to the native glycopeptide (fold)” value is reported as “approximately 2 fold”.
With “H-KPAWCWYTLAMCGAGYDS(βGlcNAc)GTCDYMYSHCFGIKHHSSGSSSYHC(βGlcNAc)-OH (disulfide 5-28, 12-21) [Compound 1b, glycocin F]”, it took 1.13 ± 0.2 nM to reach half-maximal inhibition (IC50).
On the same count and under the same terms, to “H-KPAWCWYTLAMCGAGYDS(βGlcNAc)GTCDYMYSHCFGIKHHSSGSSSYHC(βGlcNAc)-OH (disulfide 5-28, 12-21) [Native, glycocin F]” belongs 2 ± 0.2 nM.
Consider “H-KPAWCWYTLAMCGAGYDS(βGlcNAc)GTCDYMYSHCFGIKHHSSGSSSYHS(βGlcNAc)-OH (disulfide 5-28, 12-21) [Compound 10]”, for which the “decrease in activity compared to native glycocin F (fold)” value under setting [1] is on record as “approximately 10 fold”.
